Converted amounts (≈) assume the structure as drawn.
Columns and labels:
Format in all cases: functional, cell-based
K562 = test: Cytotoxicity against human K562 cells after 72 hrs by MTT assay; conditions: K562, 72 h
[1] = Cytotoxicity against human SGH44 cells after 72 hrs by MTT assay; conditions: SGH44, 72 h
HCT-8 = test: Cytotoxicity against human HCT8 cells after 72 hrs by MTT assay; conditions: HCT-8, 72 h
A549 = test: Cytotoxicity against human A549 cells after 72 hrs by MTT assay; conditions: A549, 72 h
[2] = Cytotoxicity against human PC3M cells after 72 hrs by MTT assay; conditions: PC-3M

COc1cc(C[C@@H]2CO[C@@H](c3ccc(O)c(OC)c3)[C@@H]2COC(=O)/C=C/c2ccc(O)cc2)ccc1O
IC50 (K562): 2.9 µg/mL (≈ 5.72 µM) | IC50 [1]: 21.4 µg/mL (≈ 42.2 µM) | IC50 (HCT-8): 32.9 µg/mL (≈ 64.9 µM) | IC50 (A549): 33.8 µg/mL (≈ 66.7 µM) | IC50 [2]: 28 µg/mL (≈ 55.3 µM)

— ChEMBL document CHEMBL1141767, “Lignans from bark of Larix olgensis var. koreana” (J Nat Prod, 2005)
